Measurements from paper PMC8215677 (Frontiers in Pharmacology, 2021).
Structures can show the parent of a compound that is named as a salt. Where two headings read alike, the source gives them in different places. Marks after values point to notes of the source that are not given here.

Experiments:
[1] = Solubility of berberine hydrochloride in the NADES, its water dilutions and malic acid solutions; type: physicochemical
Method: BBR was dissolved in pure water as a control. The solutions were ultrasonically treated for 1 h, and after full vortexing, the solutions were placed at room temperature for 1 h. Next, the solutions were centrifuged at 20,000 g for 10 min at 20°C. The obtained supernatant was filtered through a 0.22 μm membrane. The filtered solution was diluted with a certain volume of methanol, followed by injection into the LC-MS system for the quantitative analysis of BBR (Quantification of several Coptidis Rhizomaalkaloids).
The concentrations of the primary metabolites were equal to their concentrations in the NADES, i.e., 490.5 mg/ml, 280.6 mg/ml, 517.7 mg/ml, and 19.0 mg/ml, respectively.

[2] = Transportation of BBR across MDCK-MDR1 cell monolayer; type: in vitro ADME, canine; conditions: dog, MDCK-MDR1
Method: (§1) MDCK-MDR1 cells were seeded on a Merck Transwell polycarbonate membrane (NJ, United States) at a density of 2 × 10^5 cells/mL. The cells were cultured until the tight junctions were formed (transepithelial electrical resistance value >500 Ω cm2). Before the experiment, the media on both sides of the chamber were replaced with a warmed HBSS solution. The cells were then incubated for 20 min at 37°C.
(§2) The unit of P app is cm/sec.

MDCK-MDR1 cell monolayer = assay: as above; type: in vitro ADME, canine; conditions: for P app (AP-BL) / P app (BL-AP) / ERs (efflux rate): BBR 10 μg/ml
Method: as §1, §2

[3] = Pharmacokinetics of oral BBR in mice (portal vein and liver); type: in vivo, mice; conditions: for AUC0-∞ / AUC0–12 h / Cmax / MRT / Tmax / half-life / AUC(0-inf) / AUC(0-t): mice; for AUC(0-t): read-out: AUC0–12 h
Method: The dosages of malic acid were, respectively, equal to the dosages of malic acid in the 1 and 10% water dilutions of the NADES. […] Six mice in each group were anesthetized using diethyl ether at 0.25, 0.5, 1, 2, 3, 4, 6, 8, or 12 h after administration. Blood samples were then collected from the portal vein into heparin-containing tubes. The plasma samples were obtained by centrifugation of the blood samples at 1,000 g for 10 min at 4°C. The livers of the mice were collected and homogenized in 10 × volume of water. At the end of the experiment, the mice were euthanized by cervical dislocation.
A non-compartmental analysis using WinNonlin® software (Pharsight, CA, United States) was performed to obtain the pharmacokinetic parameters of berberine in mice. It should be noted that the pharmacokinetic parameters were calculated based on the average drug concentration at each time point because the mice were not continuously sampled.

[4] = ref Liu et al., cited from earlier work
ICR mice = assay: Acute toxicity in mice; type: in vivo; conditions: malic acid 9,800, 2,940 or 980 mg/kg oral
Method: Sixty ICR mice were randomly divided into three groups according to gender and body weight, with 20 mice in each group. After fasting for 12 h, the mice were orally administered with 0.2 ml/10 g body weight the NADES (the four-component NADES prepared with 350 μL water, the same below) or its 30 and 10% water dilutions, respectively. The symptoms of the mice were then observed, and the death time and the number of dead mice within 3 days were recorded.
The above method was also used to evaluate the acute toxicity of malic acid at different dosages, i.e., 9,800, 2,940, or 980 mg/kg, which were, respectively, equal to the dosages of malic acid in the NADES and its 30%, and10% water dilutions.

mouse gut sacs = assay: Transportation of BBR in mouse gut sacs; type: in vitro ADME; conditions: BBR 200 μg/ml
Method: After incubation, aliquots of buffer (100 μL) were, respectively, taken from the serosal side or mucosal side every 15–60 min and replaced with an equal volume of blank Krebs-Ringer buffer. The LC-MS system (Quantification of several Coptidis Rhizomaalkaloids) was used for the quantitative analysis of BBR.

[5] = system: intestinal paracellular tight junctions (mouse gut sac); assay: Transportation of FD4 across mouse gut sacs (tight junction integrity); type: in vitro ADME
Method: Fluorescein isothiocyanate-labeled dextran (FD4) with a molecular weight of 4,400 g/moL, is usually used to test the integrity of intestinal paracellular tight junctions ([Ma et al., 2012]). The influence of various NADES dilutions (1, 3, and 10%) on the in vitro transportation of FD4 (3 mg/ml) across the mouse gut sac was determined. The concentrations of FD4 were determined using a fluorescence microplate reader (BioTek Instruments, Winooski, VT, United States), with excitation and emission at 485 and 528 nm, respectively, ([Ma et al., 2012]). In addition, the effects of NADES dilutions pretreatment on the transportation of FD4 across the mouse gut sacs were also determined. Several mice were orally administered with 10% NADES aqueous solution. The intestines were collected after 4 h, completely washed with blank Krebs-Ringer buffer, and subsequently used for the transportation study.

MDCK-MDR1 cells = assay: Cytotoxicity in MDCK-MDR1 cells (CCK-8); conditions: 4 and 24 h; for Cytotoxicity: p > 0.05
Method: The cells were seeded into 96 well plate at the density of 3 × 10^4 cells per well. After 24 h incubation in the incubator, the culture medium was carefully sucked out, and then 200 μL DMEM medium containing 0.1, 0.3, 1 or 3% NADES was added. The control well was added with the same volume of DMEM medium. After incubation for 4 h or 24 h, 10% CCK-8 solution was added. After incubation for another 2 h, the absorbance at 450 nm was measured by using a microplate reader. The cytotoxicity of the NADES dilutions was evaluated by comparing the absorbance of the treatment groups to that of the control group.
The above method was also used to evaluate the cytotoxicity of different concentrations of malic acid, i.e., 4.90, 1.47 or 0.49 mg/ml, which were, respectively, equal to the concentrations of malic acid in the 1, 0.3 or 0.1% dilutions of the NADES.

[6] = livers, oral BBR 200 mg/kg dissolved in water (Control)
[7] = livers, oral BBR 200 mg/kg in 1% NADES dilution
[8] = livers, oral BBR 200 mg/kg in 10% NADES dilution
[9] = livers, oral BBR 200 mg/kg in malic acid solution 98 mg/kg
[10] = livers, oral BBR 200 mg/kg in malic acid solution 980 mg/kg
[11] = mouse, liver, po, 200 mg/kg, livers, oral BBR 200 mg/kg dissolved in water (Control)
[12] = mouse, liver, po, 200 mg/kg, livers, oral BBR 200 mg/kg in 1% NADES dilution
[13] = mouse, liver, po, 200 mg/kg, livers, oral BBR 200 mg/kg in 10% NADES dilution
[14] = mouse, liver, po, 200 mg/kg, livers, oral BBR 200 mg/kg in malic acid solution 98 mg/kg
[15] = mouse, liver, po, 200 mg/kg, livers, oral BBR 200 mg/kg in malic acid solution 980 mg/kg
[16] = mouse, portal vein plasma, po, 200 mg/kg, portal vein, oral BBR 200 mg/kg dissolved in water (Control)
[17] = mouse, portal vein plasma, po, 200 mg/kg, portal vein, oral BBR 200 mg/kg in 1% NADES dilution
[18] = mouse, portal vein plasma, po, 200 mg/kg, portal vein, oral BBR 200 mg/kg in 10% NADES dilution
[19] = mouse, portal vein plasma, po, 200 mg/kg, portal vein, oral BBR 200 mg/kg in malic acid solution 98 mg/kg
[20] = mouse, portal vein plasma, po, 200 mg/kg, portal vein, oral BBR 200 mg/kg in malic acid solution 980 mg/kg

COc1ccc2cc3[n+](cc2c1OC)CCc1cc2c(cc1-3)OCO2 [BBR, Berberine hydrochloride]
solubility ([1]; NADES (undiluted), in the NADES (100%), room temperature (20°C)): ≥ 20 mg/mL
Solubility of berberine hydrochloride ([1]; as the pH of the malic acid solution was increased by addition of NaOH, p < 0.01): increased
Solubility of BBR compared with water ([1]; in 10% water dilution of NADES, p < 0.01): higher
Solubility of BBR compared with water ([1]; in 30% water dilution of NADES, p < 0.01): higher
Papp A→B at 10 μg/ml [2]: 0.41 ± 0.06 ×10⁻⁶ cm/s
Papp B→A at 10 μg/ml [2]: 13.3 ± 0.4 ×10⁻⁶ cm/s
P app (AP-BL) (MDCK-MDR1 cell monolayer; with 0.3% NADES): 0.88 ± 0.13 ×10^−6 cm/s
P app (BL-AP) (MDCK-MDR1 cell monolayer; with 0.3% NADES): 13.1 ± 1.9 ×10^−6 cm/s
ERs (efflux rate) (MDCK-MDR1 cell monolayer; with 0.3% NADES, p < 0.05 vs Control): 14.9*
P app (AP-BL) (MDCK-MDR1 cell monolayer; with 1% NADES): 20.1 ± 8.7 ×10^−6 cm/s
P app (BL-AP) (MDCK-MDR1 cell monolayer; with 1% NADES): 21.7 ± 1.4 ×10^−6 cm/s
ERs (efflux rate) (MDCK-MDR1 cell monolayer; with 1% NADES, p < 0.01 vs Control): 1.1**
P app from AP to BL (MDCK-MDR1 cell monolayer; BBR alone): lower than 10^−6 cm/s
AUC0-∞ [3, 6]: 68.4 μg·h/g liver
AUC0–12 h [3, 6]: 66.3 μg·h/g liver
Cmax [3, 6]: 16.7 μg/g liver
AUC0-∞ [3, 7]: 80.9 μg·h/g liver
AUC0–12 h [3, 7]: 74.5 μg·h/g liver
Cmax [3, 7]: 29.3 μg/g liver
AUC0-∞ [3, 8]: 112.5 μg·h/g liver
AUC0–12 h [3, 8]: 109.4 μg·h/g liver
Cmax [3, 8]: 34.8 μg/g liver
AUC0-∞ [3, 9]: 73.8 μg·h/g liver
AUC0–12 h [3, 9]: 72.3 μg·h/g liver
Cmax [3, 9]: 38.0 μg/g liver
AUC0-∞ [3, 10]: 88.3 μg·h/g liver
AUC0–12 h [3, 10]: 85.9 μg·h/g liver
Cmax [3, 10]: 30.0 μg/g liver
Toxic reaction after oral administration ([3]; mouse, in vivo, po): no toxic reaction
MRT [3, 11]: 3.7 h
Tmax [3, 11]: 2 h
half-life [3, 11]: 2.2 h
MRT [3, 12]: 3.2 h
Tmax [3, 12]: 2 h
MRT [3, 13]: 3 h
Tmax [3, 13]: 1 h
half-life [3, 13]: 2.2 h
MRT [3, 14]: 3 h
Tmax [3, 14]: 2 h
half-life [3, 14]: 2.3 h
MRT [3, 15]: 2.5 h
Tmax [3, 15]: 1 h
half-life [3, 15]: 1.5 h
AUC(0-inf) [3, 16]: 1130 ng·h/mL
MRT [3, 16]: 3.1 h
Tmax [3, 16]: 2 h
half-life [3, 16]: 1.7 h
AUC(0-t) [3, 16]: 1120 ng·h/mL
Cmax ([3]; mouse, portal vein plasma, po, 200 mg/kg, portal vein, oral BBR 200 mg/kg dissolved in water (Control), read-out: Cmax): 321 ng/mL
AUC(0-inf) [3, 17]: 2740 ng·h/mL
MRT [3, 17]: 2.9 h
Tmax [3, 17]: 2 h
half-life [3, 17]: 1.3 h
AUC(0-t) [3, 17]: 2730 ng·h/mL
Cmax ([3]; mouse, portal vein plasma, po, 200 mg/kg, portal vein, oral BBR 200 mg/kg in 1% NADES dilution, read-out: Cmax): 975 ng/mL
AUC(0-inf) [3, 18]: 3610 ng·h/mL
MRT [3, 18]: 2.4 h
Tmax [3, 18]: 1 h
half-life [3, 18]: 1.7 h
AUC(0-t) [3, 18]: 3590 ng·h/mL
Cmax ([3]; mouse, portal vein plasma, po, 200 mg/kg, portal vein, oral BBR 200 mg/kg in 10% NADES dilution, read-out: Cmax): 1470 ng/mL
AUC(0-inf) [3, 19]: 2300 ng·h/mL
MRT [3, 19]: 2.7 h
Tmax [3, 19]: 2 h
half-life [3, 19]: 2.7 h
AUC(0-t) [3, 19]: 2230 ng·h/mL
Cmax ([3]; mouse, portal vein plasma, po, 200 mg/kg, portal vein, oral BBR 200 mg/kg in malic acid solution 98 mg/kg, read-out: Cmax): 972 ng/mL
AUC(0-inf) [3, 20]: 3070 ng·h/mL
MRT [3, 20]: 2.1 h
Tmax [3, 20]: 1 h
half-life [3, 20]: 1.4 h
AUC(0-t) [3, 20]: 3060 ng·h/mL
Cmax ([3]; mouse, portal vein plasma, po, 200 mg/kg, portal vein, oral BBR 200 mg/kg in malic acid solution 980 mg/kg, read-out: Cmax): 1250 ng/mL
Fraction of oral BBR directly removed with feces [4]; 2010: about 56%
Fraction of oral BBR eliminated by intestinal efflux transporters and drug metabolizing enzymes [4]; 2010: about 43.5%
Oral bioavailability [4]; 2010: 0.36%
Fraction of BBR directly discharged from the body after oral administration [4]; 2016: about 56%
Fraction of oral BBR eliminated during intestinal absorption [4]; 2016: 43.5%

O=C(O)CC(O)C(=O)O (centres unmarked) [malic acid]
Acute toxicity (ICR mice): significant acute toxicity
Effect on efflux of BBR in gut sacs (mouse gut sacs; malic acid 14.7 mg/ml or more): promoted the efflux
Effect on absorption of BBR in gut sacs (mouse gut sacs; malic acid 4.9–49.0 mg/ml, concentration-dependent): promoted the absorption
Effect on absorption of FD4 across mouse gut sacs ([5]; malic acid 4.9, 14.7, 49.0 mg/ml present, concentration dependent, p < 0.01): increased the absorption
Reversibility of the effect on FD4 absorption ([5]; malic acid pretreatment for 4 h): reversible
Cytotoxicity (MDCK-MDR1 cells; 0.49 mg/ml malic acid): no significant cytotoxicity
Cytotoxicity (MDCK-MDR1 cells; 1.47 mg/ml malic acid): no significant cytotoxicity
Cell viability (MDCK-MDR1 cells; 4.9 mg/ml malic acid, p < 0.01): completely lost
